The IC50 is the concentration at which inhibition is half-maximal. By inhibition is commonly meant how much of the control response was suppressed.

Assay [1] deals with T1, Prostaglandin G/H synthase 2 (Homo sapiens, UniProt P35354).
T1 sequence (P35354 whole entry): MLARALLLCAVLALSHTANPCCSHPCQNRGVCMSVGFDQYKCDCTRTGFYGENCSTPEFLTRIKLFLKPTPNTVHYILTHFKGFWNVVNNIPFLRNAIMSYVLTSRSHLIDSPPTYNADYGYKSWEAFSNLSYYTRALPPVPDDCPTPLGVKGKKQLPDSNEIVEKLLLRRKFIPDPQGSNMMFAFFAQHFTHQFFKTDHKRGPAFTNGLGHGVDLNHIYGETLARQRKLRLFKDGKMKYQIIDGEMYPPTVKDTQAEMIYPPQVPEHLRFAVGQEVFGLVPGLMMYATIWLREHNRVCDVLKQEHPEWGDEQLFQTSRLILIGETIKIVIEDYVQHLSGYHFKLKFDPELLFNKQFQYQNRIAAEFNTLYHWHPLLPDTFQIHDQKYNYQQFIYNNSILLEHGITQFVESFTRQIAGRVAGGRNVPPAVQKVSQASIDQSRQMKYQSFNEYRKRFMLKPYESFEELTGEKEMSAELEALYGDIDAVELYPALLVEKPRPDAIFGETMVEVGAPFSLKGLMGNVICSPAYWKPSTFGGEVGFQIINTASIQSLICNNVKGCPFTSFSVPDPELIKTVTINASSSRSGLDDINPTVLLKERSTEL
Briefly: In vitro inhibitory activity against recombinant human Prostaglandin G/H synthase 2.

Assay [2] has as its target T2, Prostaglandin G/H synthase 1 (Homo sapiens, UniProt P23219). Briefly: In vitro inhibitory activity against recombinant human Prostaglandin G/H synthase 1 at concentration of 100 uM.
Assay [3] concerns the target T2, Prostaglandin G/H synthase 1. As to the kind of experiment: In vitro inhibitory activity against recombinant human Prostaglandin G/H synthase 1.
The target is the same in assay [4]. Briefly: Ratio of in vitro inhibitory activity against recombinant human COX-1 to that of recombinant human COX-2.

Bounds are passed on as bounds.

T2 sequence (P23219 whole entry): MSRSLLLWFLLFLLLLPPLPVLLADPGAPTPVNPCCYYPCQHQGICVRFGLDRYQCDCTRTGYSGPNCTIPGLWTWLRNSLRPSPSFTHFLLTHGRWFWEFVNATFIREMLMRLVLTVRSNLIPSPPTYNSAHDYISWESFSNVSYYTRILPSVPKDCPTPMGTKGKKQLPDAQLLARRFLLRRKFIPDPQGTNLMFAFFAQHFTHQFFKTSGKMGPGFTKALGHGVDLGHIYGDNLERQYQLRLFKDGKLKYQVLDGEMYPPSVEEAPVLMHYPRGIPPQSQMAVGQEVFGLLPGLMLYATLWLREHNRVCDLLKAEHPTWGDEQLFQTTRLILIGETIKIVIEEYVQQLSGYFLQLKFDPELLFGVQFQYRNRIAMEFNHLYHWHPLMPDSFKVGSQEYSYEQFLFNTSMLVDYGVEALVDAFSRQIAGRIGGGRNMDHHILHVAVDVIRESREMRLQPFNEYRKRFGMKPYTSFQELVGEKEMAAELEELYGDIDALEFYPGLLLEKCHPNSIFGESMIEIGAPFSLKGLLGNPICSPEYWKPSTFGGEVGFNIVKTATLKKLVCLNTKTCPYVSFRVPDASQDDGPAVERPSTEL

With `CSc1ccc(C2=C3c4cc(C)ccc4CCC3(O)OC2=O)cc1` (stereo unspecified), the IC50 in assay [1] stood at 670 nM; in assay [3], 13200 nM. The inhibition in assay [2] amounted to 97%.

As for `Cc1ccc2c(c1)C1=C(c3ccc(S(C)(=O)=O)cc3)C(=O)OC1CC2` (stereo unspecified), the IC50 is 665 nM in assay [1] and more than 30000 nM in assay [3]. For the same molecule, the Ratio in assay [4] is more than 45.1. For the same molecule, the inhibition in assay [2] worked out at 52%.

As to `CS(=O)(=O)c1ccc(C2=C3c4ccccc4CCC3(O)OC2=O)cc1` (stereo unspecified), the inhibition in assay [2] is 57%.

For `CS(=O)(=O)c1ccc(C2=C3c4ccccc4CCC3OC2=O)cc1` (stereo unspecified), the IC50 in assay [1] was 562 nM; in assay [3], more than 45000 nM. Further, in assay [2], the inhibition is 100%.

Consider `C[S+]([O-])c1ccc(C2=C3c4ccccc4CCC3(O)OC2=O)cc1` (stereo unspecified), for which the inhibition in assay [2] amounted to 11%.

On to `CSc1ccc(C2=C3c4cc(C)ccc4CCC3OC2=O)cc1` (stereo unspecified), for which the results for the IC50 in assay [1] and in assay [3] were 971 nM and 61 nM, respectively. The inhibition in assay [2] amounted to 100%.

Turning to `CSc1ccc(C2=C3c4ccccc4CCC3(O)OC2=O)cc1` (stereo unspecified), the IC50 in assay [1] was determined as 850 nM; in assay [3], 16700 nM. Further, in assay [2], the inhibition amounted to 80%.

Consider `CSc1ccc(C2=C3c4ccccc4CCC3OC2=O)cc1` (stereo unspecified), for which the figures for the IC50 in assay [1] and in assay [3] were 827 nM and 53 nM, respectively. Further, the inhibition in assay [2] worked out at 100%.
